“Also recorded” adds a separate entry of the source.
What was measured:
Type in all cases: in vivo, CD-1 mice
[1] = tested on: L-NAME-induced pre-eclampsia animal model; assay: Blood pressure on day 12 of gestation in L-NAME-induced pre-eclampsia model; settings: days 1-18 of pregnancy, vs pregnancy model group
Procedure: (§1) Pregnant CD-1 mice (age 8-10 weeks) were randomly divided into control and pre-eclampsia model groups. On days 7-16 of the gestational cycle, the model group mice were induced with preeclampsia by subcutaneous injection of 50 mg/kg of N-nitro-L-arginine methyl ester (L-NAME) daily. For the control group, an equal volume of the solvent was injected subcutaneously. [table] In animal models of L-NAME-induced pre-eclampsia, symptoms of hypertension appear two days after the first administration of L-NAME and persist until at least five days after the first administration of L-NAME, according to the literature. The appearance of proteinuric symptoms was relatively late. Therefore, in this experiment, we focused on monitoring the blood pressure of […] on day 12 of gestation (i.e., five days after the first administration of L-NAME), as well as collecting 24-hour urine on day 17-18 of gestation and measuring the level of total protein. Also, we recorded the number of pups produced by each group of pregnant rats.

[2] = tested on: L-NAME-induced pre-eclampsia animal model; assay: 24-hour urinary total protein on days 17-18 of gestation in L-NAME-induced pre-eclampsia model; settings: for L-NAME-induced 24-hour urinary protein elevation: vs pregnancy model group
Procedure: as §1

[3] = tested on: L-NAME-induced pre-eclampsia animal model; assay: Number of pups (litter size) in L-NAME-induced pre-eclampsia model
Procedure: as §1

[4] = 90 mg/kg tail vein injection daily
[5] = 120 mg/kg tail vein injection daily

For `CC(=O)N[C@H]1[C@H]([C@H](O)[C@H](O)CO)OC(C(=O)O)=C[C@@H]1N=C(N)N` [zanamivir, 5-acetamido-4-[(aminoiminomethyl)-amino]-2,6-hydro-3,4,5-trideoxy-D-propanetriolyl-D-galactos-2-enolonic acid], the blood pressure [1, 4] was “did not significantly change”, the “L-NAME-induced increase in diastolic blood pressure” value [1, 5] was “significantly reduced” and the “L-NAME-induced increase in mean arterial pressure” value [1, 5] was “significantly reduced”. For the same compound, the “L-NAME-induced increase in systolic blood pressure” value [1, 5] was “significantly reduced”, the “L-NAME-induced 24-hour urinary protein elevation” value [2, 4] was “significantly reduced” and the “L-NAME-induced 24-hour urinary protein elevation” value [2, 5] was “significantly reduced”. The “L-NAME-induced elevation of 24-hour urinary protein” value ([2]; FIG. 4 legend, dose not stated) was “significantly reduces”, the “reduction of litter size caused by L-NAME” value (“reduction” below) ([3]; 90 mg/kg tail vein injection daily, vs pregnancy model group) was “significantly improved” and the “reduction” value ([3]; 120 mg/kg tail vein injection daily, vs pregnancy model group) was “significantly improved; also recorded: returning to a level comparable to that of the pregnant control group”. For the same compound, the “reduction” value ([3]; FIG. 5 legend, dose not stated) was “significantly improved”.

From patent publication US20240009166A1, “USE OF ZANAMIVIR IN PREPARATION OF DRUG FOR TREATING OR PREVENTING PREECLAMPSIA” (Shenzhen Evergreen Therapeutics Co., Ltd., priority 2020, published 2024)
